From ChEMBL document CHEMBL3046242, “Synthesis and evaluation of thiopyrano[3,4-c]quinoline-9-carboxamide derivatives as inhibitors of poly(ADP-ribose) polymerase-1 (PARP-1)” (Med Chem Res, 2012)

Key:
[1] = molecular target: T1, Poly [ADP-ribose] polymerase 1 (Homo sapiens, UniProt P09874); test: Inhibition of PARP-1 (unknown origin) expressed in CHO-K1 cells assessed as depletion of NAD(P)H after 2 hr by CCK-8 assay; assay type: cell-based
[2] = molecular target: T1, Poly [ADP-ribose] polymerase 1; test: Inhibition of PARP-1 (unknown origin) assessed as inhibition of biotinylated poly(ADP-ribose) onto histone proteins after 30 min by colorimetry
[3] = Half life in Homo sapiens (human) liver microsomes at 1 uM by LC/MS/MS analysis; assay type: ADME
[4] = Half life in Rattus norvegicus Sprague-Dawley (rat) at 5 mg/kg, iv; assay type: ADME, organism-based; set-up: dose 5 mg/kg, route intravenous; conditions: in vivo
[5] = Clearance in Rattus norvegicus Sprague-Dawley (rat) at 5 mg/kg, iv; assay type: ADME, organism-based; set-up: dose 5 mg/kg, route intravenous; conditions: in vivo
[6] = AUC (0 to infinity) in Rattus norvegicus Sprague-Dawley (rat) at 5 mg/kg, iv; assay type: ADME, organism-based; set-up: time infinity, dose 5 mg/kg, route intravenous; conditions: plasma
[7] = Solubility of the compound in water; assay type: physicochemical

T1 sequence (P09874 whole entry): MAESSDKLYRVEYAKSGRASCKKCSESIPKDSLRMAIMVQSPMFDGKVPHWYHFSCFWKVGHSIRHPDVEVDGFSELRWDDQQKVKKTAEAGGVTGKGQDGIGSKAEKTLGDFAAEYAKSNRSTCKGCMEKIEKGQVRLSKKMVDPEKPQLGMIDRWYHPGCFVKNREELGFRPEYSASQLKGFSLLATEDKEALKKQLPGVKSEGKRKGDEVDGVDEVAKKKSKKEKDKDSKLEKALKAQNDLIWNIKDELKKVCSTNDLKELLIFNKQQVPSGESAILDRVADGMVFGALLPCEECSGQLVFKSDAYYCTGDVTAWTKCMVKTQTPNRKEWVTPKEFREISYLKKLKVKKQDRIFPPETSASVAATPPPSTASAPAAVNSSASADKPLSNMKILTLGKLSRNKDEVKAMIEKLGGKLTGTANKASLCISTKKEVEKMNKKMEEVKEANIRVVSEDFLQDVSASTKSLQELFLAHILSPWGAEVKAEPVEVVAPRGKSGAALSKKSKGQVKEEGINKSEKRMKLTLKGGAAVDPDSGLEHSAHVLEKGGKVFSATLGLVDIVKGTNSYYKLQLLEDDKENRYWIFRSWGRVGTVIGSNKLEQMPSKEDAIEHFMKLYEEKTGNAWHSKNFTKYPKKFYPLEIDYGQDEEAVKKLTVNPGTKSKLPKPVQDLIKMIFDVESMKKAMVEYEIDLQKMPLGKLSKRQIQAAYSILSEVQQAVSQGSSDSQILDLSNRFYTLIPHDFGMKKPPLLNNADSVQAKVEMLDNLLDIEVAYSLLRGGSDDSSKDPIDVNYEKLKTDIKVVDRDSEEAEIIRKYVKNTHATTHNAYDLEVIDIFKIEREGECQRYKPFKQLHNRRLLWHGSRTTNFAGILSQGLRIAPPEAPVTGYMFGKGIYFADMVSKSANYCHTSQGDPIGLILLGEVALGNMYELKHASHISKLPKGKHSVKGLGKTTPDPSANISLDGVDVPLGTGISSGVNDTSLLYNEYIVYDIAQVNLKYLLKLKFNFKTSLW

Row | SMILES | ED50 [1] [µM] | IC50 [2] [nM] | further results
1 | O=C(c1ccc2[nH]c(=O)c3c(c2c1)CCSC3)N1CCN(CCCC(F)(F)F)CC1 | 2.41 | 134 | –
2 | O=C(c1ccc2[nH]c(=O)c3c(c2c1)CCSC3)N1CCN(c2ccccc2)CC1 | 1.29 | 234 | –
3 | O=C(c1ccc2[nH]c(=O)c3c(c2c1)CCSC3)N1CCN(Cc2ccccc2)CC1 | 2.51 | 187 | –
4 | CCCCCN1CCN(C(=O)c2ccc3[nH]c(=O)c4c(c3c2)CCSC4)CC1 | 0.61 | 79 | –
5 | CCOC(=O)c1ccc2[nH]c(=O)c3c(c2c1)CCSC3 | – | 536 | –
6 | O=C(O)c1ccc2[nH]c(=O)c3c(c2c1)CCSC3 | – | 78 | –
7 | CN1CCN(C(=O)c2ccc3[nH]c(=O)c4c(c3c2)CCSC4)CC1 | 2.53 | 188 | –
8 | O=C(c1ccc2[nH]c(=O)c3c(c2c1)CCSC3)N1CCCCC1 | 1.26 | 175 | –
9 | O=C1CC2(CCCC2)CC(=O)N1CCCCN1CCN(c2ncccn2)CC1 [BUSPIRONE] | – | – | half-life at 1 µM [3]: 4 min
10 | O=C(c1ccc2[nH]c(=O)c3c(c2c1)CCSC3)N1CCN(C2CCCCC2)CC1 | 0.32 | 68 | –
11 | O=C(NCCN1CCN(c2ccccc2)CC1)c1ccc2[nH]c(=O)c3c(c2c1)CCSC3 | 4.02 | 166 | –
12 | CCCCCCN1CCN(C(=O)c2ccc3[nH]c(=O)c4c(c3c2)CCSC4)CC1 | 2.91 | 94 | –

Now from value to compound, other results behind:

Row | ED50 [1] [µM] | IC50 [2] [nM] | SMILES | further results
13 | 0.77 | 42 | CCCCN1CCN(C(=O)c2ccc3[nH]c(=O)c4c(c3c2)CCSC4)CC1 | –
14 | > 30 | 27 | NCCCCNC(=O)c1ccc2[nH]c(=O)c3c(c2c1)CCSC3 | –
15 | > 30 | 8 | O=C(c1ccc2[nH]c(=O)c3c(c2c1)CCSC3)N1CCNCC1 | –
16 | 2.81 | 58 | O=C(NCCN1CCCCC1)c1ccc2[nH]c(=O)c3c(c2c1)CCSC3 | –
17 | > 30 | 20 | O=C(c1ccc2[nH]c(=O)c3c(c2c1)CCSC3)N1CCN(c2ccncc2)CC1 | –
18 | 0.84 | 65 | CC(C)CCN1CCN(C(=O)c2ccc3[nH]c(=O)c4c(c3c2)CCSC4)CC1 | half-life at 1 µM [3]: 15.9 min
19 | > 30 | 36 | O=C(NCCN1CCNCC1)c1ccc2[nH]c(=O)c3c(c2c1)CCSC3 | –
20 | 0.55 | 47 | O=C(c1ccc2[nH]c(=O)c3c(c2c1)CCSC3)N1CCN(C2CCCC2)CC1 | half-life at 1 µM [3]: 14.5 min
21 | 0.46 | 40 | CCCC(C)N1CCN(C(=O)c2ccc3[nH]c(=O)c4c(c3c2)CCSC4)CC1 (configuration not stated) | –
22 | > 30 | 17 | NCCNC(=O)c1ccc2[nH]c(=O)c3c(c2c1)CCSC3 | –
23 | 0.5 | 67 | O=C(c1ccc2[nH]c(=O)c3c(c2c1)CCSC3)N1CCN(C2CCCCCC2)CC1 | –
24 | > 30 | 44 | O=C(NCCN1CCN(c2ccncc2)CC1)c1ccc2[nH]c(=O)c3c(c2c1)CCSC3 | –
25 | 0.54 | 45 | CCCN1CCN(C(=O)c2ccc3[nH]c(=O)c4c(c3c2)CCSC4)CC1 | half-life at 1 µM [3]: 41.7 min; half-life [4]: 84 min; clearance [5]: 63.3 mL/min/kg; AUC(0-inf) [6]: 1300 ng·h/mL; solubility [7]: > 1000 µg/mL
26 | 2 | 47 | CCN1CCN(C(=O)c2ccc3[nH]c(=O)c4c(c3c2)CCSC4)CC1 | –
27 | > 30 | 30 | NCCCNC(=O)c1ccc2[nH]c(=O)c3c(c2c1)CCSC3 | –
28 | 2.19 | 19 | O=C(c1ccc2[nH]c(=O)c3c(c2c1)CCSC3)N1CCN(CCc2ccccc2)CC1 | –
29 | > 30 | 60 | O=C(NCCN1CCOCC1)c1ccc2[nH]c(=O)c3c(c2c1)CCSC3 | –
